pEC50: −log10 of the molar value.
These compounds were tested on HCV Replicon IA (assay: HCV replicon assay in Huh-7 cells, genotype 1a). Conditions: Hepatitis C virus, 72 h, Huh-7 HCV replicon cells, 3 days.
Type: cell-based

| Compound | inhibition at 10 µM [%] |
| --- | --- |
| O=C(NCc1cccs1)c1cc(O)c2cc(-c3ccoc3)cc(C(F)(F)F)c2n1 [Compound 7] | 99.2 |
| O=C(Cc1cccs1)Nc1cc(O)c2cc(-c3ccccc3)cc(C(F)(F)F)c2n1 [Compound 40] | 99.7 |
| COc1cc(C(=O)NCc2cccs2)nc2c(C(F)(F)F)cc(-c3ccoc3)cc12 [Compound 27] | 65.5 |
| Cc1cc(C(=O)NCc2cccs2)nc2c(C(F)(F)F)cc(-c3ccoc3)cc12 [Compound 28] | 99.8 |
| O=C(NCc1ccncc1)c1cc(O)c2cc(-c3cn[nH]c3)cc(C(F)(F)F)c2n1 [Compound 13] | 43.4 |
| O=C(NCc1cncs1)c1cc(O)c2cc(-c3cn[nH]c3)cc(C(F)(F)F)c2n1 [Compound 8] | 98.8 |
| Nc1cc(C(=O)NCc2cccs2)nc2c(C(F)(F)F)cc(-c3ccccc3)cc12 [Compound 66] | 99.9 |
| O=C(c1cc(O)c2cc(-c3ccoc3)cc(C(F)(F)F)c2n1)N1CC=C(c2ccccc2)CC1 [Compound 29] | 87.4 |

The compounds below were run on HCV Replicon IB (assay: HCV replicon assay in Huh-7 cells, genotype 1b (Rluc luciferase readout)). Conditions: HCV1B replicon, Huh-7 cells, 3 days; read-out: EC50_HCV1B_.
Type: cell-based, hepatitis C virus

| Compound | pEC50 |
| --- | --- |
| Cc1cc(-c2nnc(N[C@H]3CC[C@@](C)(O)CC3)o2)nc2c(C(C)(C)C)cc(OCC(F)(F)F)cc12 [Compound 497] | 7.13 |

Same assay, conditions: Hepatitis C virus, 72 h; 10 uM; 1b-Rluc replicon, Huh-7 cells, 3 days; read-out: Inhibition @ 10 uM in 1b-Rluc

| Compound | inhibition at 10 µM [%] |
| --- | --- |
| CC#Cc1cc(C(F)(F)F)c2nc(C(=O)NCc3ccccn3)cc(C)c2c1 [Compound 148] | 99.5 |
| Cc1cc(-c2nnc(NCCO)o2)nc2c(C(F)(F)F)cc(C3CC3)cc12 [Compound 255] | 99.4 |
| Cc1cc(C(=O)NCc2ccccn2)nc2c(C(F)(F)F)cc(N(C)S(C)(=O)=O)cc12 [Compound 179] | 98.9 |
| Cc1cc(-c2nnc(Nc3ccccc3)o2)nc2c(C(F)(F)F)cc(C3CC3)cc12 [Compound 242] | 100 |
| COc1cc(C(F)(F)F)c2nc(-c3nnc(NCC(=O)N(C)C)o3)cc(C)c2c1 [Compound 279] | 98.4 |
| Cc1cc(-c2nnc(NCC3OCCO3)o2)nc2c(C(C)(C)C)cc(C3CC3)cc12 [Compound 283] | 100 |
| N#Cc1cc(-c2nnc(Nc3ccccc3)o2)nc2c(C(F)(F)F)cc(-c3ccccc3)cc12 [Compound 175] | 89.3 |
| CCCCNc1nnc(-c2cc(C)c3cc(OC)cc(C(F)(F)F)c3n2)o1 [Compound 273] | 100 |
| Cc1cc(-c2nnc(NCC3OCCO3)s2)nc2c(C(F)(F)F)cc(C3CC3)cc12 [Compound 297] | 100 |
| Cc1cc(-c2nnc(NCCCO)o2)nc2c(C(C)(C)C)cc(C3CC3)cc12 [Compound 282] | 99.9 |
| Cc1ccc(CNC(=O)c2cc(C)c3cc(C4CC4)cc(C(F)(F)F)c3n2)nc1 [Compound 85] | 100 |
| Cc1cc(C(=O)NCc2ccccn2)nc2c(C(F)(F)F)cc(C#N)cc12 [Compound 144] | 57.9 |
| Cc1cc(-c2nnc(NCC3COCCN3)s2)nc2c(C(F)(F)F)cc(C3CC3)cc12 (stereo not shown) [Compound 299] | 98 |
| Cc1cc(-c2nnc(NCC3OCCO3)o2)nc2c(C(F)(F)F)cc(C3CC3)cc12 [Compound 246] | 100 |
| Cc1cc(C(=O)NCC2CC2)nc2c(C(F)(F)F)cc(C3CC3)cc12 [Compound 102] | 99.7 |
| Cc1cc(C(=O)NCCCO)nc2c(C(F)(F)F)cc(-c3ccccc3)cc12 [Compound 164] | 94.6 |

Same assay, conditions: Hepatitis C virus, 72 h; 10 μM; Huh-7 HCV replicon cells, 3 days; read-out: % inhibition @ 10 μM HCV Replicon IB

| Compound | inhibition at 10 µM [%] |
| --- | --- |
| O=C(NCc1cccs1)c1cc(O)c2cc(-c3ccoc3)cc(C(F)(F)F)c2n1 [Compound 7] | 99.8 |
| O=C(Cc1cccs1)Nc1cc(O)c2cc(-c3ccccc3)cc(C(F)(F)F)c2n1 [Compound 40] | 97.6 |
| COc1cc(C(=O)NCc2cccs2)nc2c(C(F)(F)F)cc(-c3ccoc3)cc12 [Compound 27] | 80.3 |
| Cc1cc(C(=O)NCc2cccs2)nc2c(C(F)(F)F)cc(-c3ccoc3)cc12 [Compound 28] | 100 |
| O=C(NCc1ccncc1)c1cc(O)c2cc(-c3cn[nH]c3)cc(C(F)(F)F)c2n1 [Compound 13] | 20.7 |
| O=C(NCc1cncs1)c1cc(O)c2cc(-c3cn[nH]c3)cc(C(F)(F)F)c2n1 [Compound 8] | 94 |
| Nc1cc(C(=O)NCc2cccs2)nc2c(C(F)(F)F)cc(-c3ccccc3)cc12 [Compound 66] | 99.9 |
| O=C(c1cc(O)c2cc(-c3ccoc3)cc(C(F)(F)F)c2n1)N1CC=C(c2ccccc2)CC1 [Compound 29] | 37.7 |

Same assay, conditions: Hepatitis C virus, Huh-7, 72 h, HCV1B replicon, Huh-7 cells, 3 days; read-out: EC50_HCV1B_

| Compound | pEC50 |
| --- | --- |
| Cc1cc(-c2nnc(N[C@H]3C[C@@H](O)C3)o2)nc2c(C(C)(C)C)cc(C3CC3)cc12 [Compound 421] | 8.49 |
| Cc1cc(-c2nnc(N[C@H]3C[C@H](O)C3)o2)nc2c(C(C)(C)C)cc(C3CC3)cc12 [Compound 422] | 8.26 |
| Cc1cc(-c2nnc(N[C@H]3CC[C@@](C)(O)C3)o2)nc2c(C(C)(C)C)cc(OCC(F)(F)F)cc12 (racemic) [Compound 474] | 8.99 |
| Cc1cc(-c2nnc(N[C@H]3C[S@+]([O-])C3)o2)nc2c(C(C)(C)C)cc(OCC(F)(F)F)cc12 [Compound 508] | 7.61 |
| Cc1cc(-c2nnc(NCCS(N)(=O)=O)o2)nc2c(C(C)(C)C)cc(C3CC3)cc12 [Compound 395] | 7.46 |
| CC(C)(C)c1cc(C2CC2)cc2c(N)cc(C(=O)NC[C@@H]3CC4(CN3)SCCS4)nc12 [Compound 333] | 8.20 |
| Cc1cc(-c2nnc(NCC3S(=O)(=O)CCS3(=O)=O)o2)nc2c(C(C)(C)C)cc(OCC(F)(F)F)cc12 [Compound 484] | 5.66 |
| CCCNc1nnc(-c2cc(N)c3cc(C4CC4)cc(C(C)(C)C)c3n2)o1 [Compound 366] | 8.70 |
| Cc1cc(OC(F)(F)F)c2nc(C(=O)NCc3cnccn3)cc(C)c2c1 [Compound 445] | 6.59 |
| CC(C)(O)CCNc1nnc(-c2cc(N)c3cc(C4CC4)cc(C(F)(F)F)c3n2)s1 [Compound 374] | 7.21 |
| CCCCCCNc1nnc(-c2cc(C)c3cc(C4CC4)cc(C(F)(F)F)c3n2)o1 [Compound 389] | 6.84 |
| Cc1cc(C(=O)NC[C@@H]2CS(=O)(=O)CCN2)nc2c(C(C)(C)C)cc(C3CC3)cc12 [Compound 426] | 8.20 |
| CC(F)(F)CNc1nnc(-c2cc(N)c3cc(C4CC4)cc(C(C)(C)C)c3n2)o1 [Compound 346] | 6.81 |
| CC[C@]1(O)C[C@@H](Nc2nnc(-c3cc(C)c4cc(OCC(F)(F)F)cc(C(C)(C)C)c4n3)o2)C1 [Compound 478] | 8.83 |
| Cc1cc(-c2nnc(NC3CC(C)(OCS(C)(=O)=O)C3)o2)nc2c(C(C)(C)C)cc(OCC(F)(F)F)cc12 (stereo not shown) [Compound 495] | 7.42 |
| CC(C)(C)c1cc(C2CC2)cc2c(N)cc(C(=O)NC[C@H]3CS(=O)(=O)CCN3)nc12 [Compound 335] | 8.52 |
| CCC(C)(O)c1cc(C2CC2)cc2c(C)cc(-c3nnc(NCC4OCCO4)o3)nc12 (stereo not shown) [Compound 543] | 6.81 |
| Cc1cc(-c2nnc(Nc3ccccn3)o2)nc2c(C(C)(C)C)cc(C3CC3)cc12 [Compound 402] | 8.54 |
| Cc1cc(-c2nnc(NCC3OCCO3)o2)nc2c(C(C)(C)C)cc(OC(F)F)cc12 [Compound 524] | 8.90 |
| Cc1cc(C(=O)NCc2ncccn2)nc2c(OC(F)(F)F)cc(C3CC3)cc12 [Compound 440] | 7.99 |
| CC(C)(C)c1cc(C2CC2)cc2c(N)cc(-c3nnc(NCC(F)(F)F)o3)nc12 [Compound 345] | 6.25 |
| Nc1cc(-c2nnc(NCCCO)s2)nc2c(C(F)(F)F)cc(C3CC3)cc12 [Compound 375] | 8.02 |
| Cc1cc(-c2nnc(N[C@H]3CC[C@H](O)C3)o2)nc2c(C(C)(C)C)cc(OCC(F)(F)F)cc12 (racemic) [Compound 477] | 8.65 |
| Cc1cc(C(=O)NC[C@@H]2CC3(CN2)OCCO3)nc2c(C(C)(C)C)cc(C3CC3)cc12 [Compound 431] | 8.09 |
| Cc1cc(-c2nnc(NCc3ccn[nH]3)o2)nc2c(C(C)(C)C)cc(OCC(F)(F)F)cc12 [Compound 452] | 7.71 |
| Cc1cc(-c2nnc(NCC3(C)OCCO3)o2)nc2c(C(C)(C)C)cc(OCC(F)(F)F)cc12 [Compound 454] | 8.64 |

Same assay, conditions: Hepatitis C virus, Huh-7, 72 h; read-out: EC50_HCV1B_

| Compound | pEC50 |
| --- | --- |
| Cc1cc(-c2nnc(N[C@H]3C[C@@](CF)(OP(=O)(O)O)C3)o2)nc2c(C(C)(C)C)cc(OCC(F)(F)F)cc12 [Compound 470] | 9.14 |
| CC(C)(C)c1cc(C2CC2)cc2c(NC(=O)CN)cc(-c3nnc(NC4CCCC4)o3)nc12 [Compound 360] | 7.36 |

— patent publication US20120053148A1, “INHIBITORS OF HEPATITIS C VIRUS” (GILEAD SCIENCES, INC., priority 2010, published 2012)
